Results on 4 compounds are retold here after US11712432B2, “Method of treating cancer with an elevated glycogen content” (University of Kentucky Research Foundation, priority 2018, dated 2023).

Data set [1] relates to A549 adenoma cells. The data set can be described thus: A549 cells treated with increasing concentrations of DAB. Conditions: Homo sapiens, FIG. 32A. It is filed as cell-based. From the text: (§1) FIGS. 32A-B show graphs illustrating in vitro and in vivo efficacy of the glycogen phosphorylase inhibitor 1,4-dideoxy-1,4-imino-d-arabinitol (DAB) in non-small cell lung cancer.
The subject of data set [2] is A549 xenografts. The data set can be described thus: A549 xenograft, tumor size. It is filed as in vivo, athymic nude mice. The settings on record: 20 mg/kg daily intraperitoneal vs PBS, 15 weeks. On the procedure: as §1
For in vivo tumor growth, H1299, H2030 and A549 cells were dissociated into single cells, counted and resuspended at 5×10^6 cells per 100 μl of 1:1 media/matrigel (BD). 8-10-week-old female Foxn1^nu/Foxn1^nu(Nude) mice (JAX Laboratories) were injected subcutaneously with 5×10^6 cells on both sides of the flanks. Tumor growth was measured twice a week by caliper in a non-blinded fashion. Tumors were allowed to grow upwards of 1000 mm^3. All mouse experiments were approved by the BCH Animal Care and Use Committee and by the University of Kentucky Institutional Animal Care and Use Committee, both accredited by the Association for Assessment and Accreditation of Laboratory Animal Care and were performed in accordance with relevant institutional and national guidelines and regulations.

For data set [3], the system named is AMPK. In words: Metformin induced AMPK activation (p-ACC) in guaiacol treated cells. It is filed as cell-based. Conditions: guaiacol treated cells plus metformin.
For data set [4], the system named is A673 xenograft. The data set can be described thus: A673 xenograft model of ES, tumor size. It is filed as in vivo, athymic nude mice. The settings on record: 20 mg/kg daily intraperitoneal vs PBS, 15 weeks. The protocol: (§2) FIGS. 31A-E show graphs illustrating in vitro and in vivo efficacy of the glycogen synthase inhibitor guaiacol as an anti-ES agent. (A) A673 Ewing's sarcoma cells were treated with increasing concentrations of guaiacol. (B) The IC50 for guaiacol is ˜20 μm in A673 cells. […] (E) A673 cells (10^7) were injected subcutaneously in athymic nude mice and when the tumor reached 0.1 cm^3 in size, a daily intraperitoneal injection was initiated of either PBS or guaiacol (20 mg/kg) and tumor size was measured over 15 weeks.
(§3) The efficacy of guaiacol was further tested in the xenograft model of ES. A673 cells (10^6) were injected subcutaneously in athymic nude mice and when the tumor reached 0.1 cm^3 in size daily IP injection of either PBS or guaiacol (20 mg/kg) was initiated and tumor size was measured over 15 weeks.

In data set [5] the test system is A673. The data set can be described thus: Total glycogen in guaiacol treated ES cell lines. It is filed as cell-based. The settings on record: at ~20 μM (IC50), A673 shown. The protocol: Cells were washed twice in PBS and then lysed in 20 mM NaAcetate pH 5.3, 150 mM NaCl, 10% (v/v) glycerol, 1% (v/v) NP-40. Lysates were centrifuged at 10,000×g at 4° C. for ten minutes. Cleared lysates or purified glycogen were dissolved in ddH2O, followed by acid hydrolysis with 2N HCL for 3 h at 98° C. The reaction was quenched with 2N NaOH for subsequent experiments. Glycogen-derived glucose molecules were measured by either biochemical assay or gas chromatography-mass spectrometry (GC-MS). For the biochemical assay, a portion of the digested lysate was incubated for half an hour at room temperature with 100 U L^−1 of both hexokinase and glucose-6-phosphate dehydrogenase (Sigma) in 50 mM Tris-HCl pH 7.5, 5 mM MgCl2, 0.5 mM ATP, 0.5 mM NAD^+. The absorbance was measured at 340 nm using glucose standards to determine glycogen concentration in lysates; undigested lysates were used for background subtraction. […]
Guaiacol as a therapeutic agent to target ES in vitro and in vivo. Glycogen metabolism has not been evaluated as an anti-cancer target in ES. […] Cell viability after treatment of guaiacol was assessed at various concentrations for 48 hrs in three different ES cell lines (TC32, A673 and HS822T). […]

The conditions of data set [6]: general statement; cited from earlier work.
The conditions of data set [7]: general statement; cited from earlier work. This is another data set of the same source.
Data set [8] relates to A673 Ewing's sarcoma cells. In words: Cell viability after guaiacol treatment, A673. Conditions: Homo sapiens. It is filed as cell-based. On the procedure:
(A) A673 Ewing's sarcoma cells were treated with increasing concentrations of guaiacol. […] (E) A673 cells (10^7) were injected subcutaneously in athymic nude mice and when the tumor reached 0.1 cm^3 in size, a daily intraperitoneal injection was initiated of either PBS or guaiacol (20 mg/kg) and tumor size was measured over 15 weeks.
Glycogen metabolism has not been evaluated as an anti-cancer target in ES. Guaiacol is a naturally occurring compound that is a GYS inhibitor. […] Cell viability after treatment of guaiacol was assessed at various concentrations for 48 hrs in three different ES cell lines (TC32, A673 and HS822T).

Data set [9] concerns HS822T. The data set can be described thus: Cell viability after guaiacol treatment, HS822T. It is filed as cell-based. The settings on record: 48 hrs, read-out: IC50 (50% cell viability). On the procedure: (§4) Guaiacol as a therapeutic agent to target ES in vitro and in vivo. Glycogen metabolism has not been evaluated as an anti-cancer target in ES. Guaiacol is a naturally occurring compound that is a GYS inhibitor. […] Cell viability after treatment of guaiacol was assessed at various concentrations for 48 hrs in three different ES cell lines (TC32, A673 and HS822T). Guaiacol IC50 (50% cell viability) for all three cell lines is ˜20 μM which corresponds to a 3-fold reduction in total glycogen (A673 is shown in FIGS. 31A-C).

Data set [10] in a line: Tolerability in xenograft mice (body weight, motor and behavior testing). Conditions: 20 mg/kg daily IP, athymic nude mice. It is filed as in vivo. The protocol: as §3
Data set [11] relates to TC32. The data set can be described thus: Cell viability after guaiacol treatment, TC32. It is filed as cell-based. Conditions: Homo sapiens, TC-32; TC32, 48 hrs; read-out: IC50 (50% cell viability). On the procedure: as §4
The subject of data set [12] is A673 xenograft tumors. In words: Normalized glycogen levels in treated xenograft tumors. It is filed as in vivo, athymic nude mice. The settings on record: FIG. 31C. The protocol: as §2, §3
Data set [13] has as its system HEK293 cells. In words: GP localization by immunofluorescence after leptomycin. It is filed as cell-based. Conditions: leptomycin B for 3 hours. From the text:
FIGS. 11A-E show images illustrating that malin ubiquitination of GPBB drives nuclear localization. (A) Immunoblotting analysis of HSP70, laforin, glycogen debranching enzyme (GDE), branching enzyme (BE), and glycogen phosphorylase (GP) with anti-tubulin (Tub) as the loading control in empty vector (EV) or malin-overexpressing (malin-OE) HEK293 cells. (B) Localization of exogenously expressed malin and GP in HEK293 cells assessed by immunofluorescence. (C) In vitro ubiquitination assay using recombinant E1, E2 (UbcH5a), malin, and myc-GP followed by immunoprecipitation with anti-myc, SDS-PAGE, and immunoblotting analysis with an antibody detecting ubiquitin. (D) Effect of inhibition of nuclear […] with leptomycin on GP localization. HEK293 cells were transfected with GFP-MEK or empty vector for the analysis of endogenous GP. Twenty-four hours post-transfection, cells were exposed to leptomycin B for 3 hours, and protein localization was assessed by immunofluorescence. (E) Schematic model for GP nuclear translocation after malin-mediated ubiquitination. All data are representative of three experiments.
Since GPBB is a novel malin-interacting protein, malin-dependent regulation of its localization was of interest. GPBB is largely localized to the cytoplasm (FIG. 11B). […]

Data set [14] deals with AMPK. The data set can be described thus: p-AMPK and p-ACC after metformin treatment of ES cells. It is filed as cell-based. On the procedure: Whole-cell extracts were generated in RIPA buffer (0.5% deoxycholate, 1% IGEPAL-CA630, 0.1% sodium dodecyl sulfate, 150 mM NaCl, 50 mM Tris-8.1), lysates were cleared by centrifugation and protein concentrations were quantified with the Pierce BCA Protein Assay Kit (Thermo). For western blotting, 25 μg of protein extract per sample was denatured with heat and reducing agents, separated on a 4-12% acrylamide gel (BioRad) and transferred to PVDF (BioRad). Antibodies used for western blotting were: malin (Abcam, 1:1,000), acetyl-H3 (EMDmillipore, 1:1,000), pan-methylation (AbCAM, 1:1,000), myc (Abcam, 1:500), branching enzyme (Lsbio, 1:500), glycogen debranching enzyme (LSBio, 1:1,000), glycogen phosphorylase liver isoform (Cell Signaling Technology 46955 1:2,000), glycogen phosphorylase brain isoform (LSBio, 1:1,000), GAPDH (Abcam 1:1,0000), Histone H3 (Abcam ab1791, 1:20,000), H3K27Ae (Abcam, 1:500), Flag-M2-HRP (Sigma, 1:5000), HSP70 (Abcam, 1:5000) and H3K27me3 (Millipore 07-449; 1:4,000). Each primary antibody was incubated overnight at 4° C. Tubulin (Abcam, 1:20,000) was used as a loading control. All antibodies have detailed species validation available online from vendors. The secondary antibody anti-rabbit IgG, HRP-linked Antibody (Cell Signaling 7074, 1:5,000) or anti-mouse IgG, HRP-linked antibody (Cell Signaling 7076, 1:5,000) was incubated for 1 h at room temperature. After washing, chemiluminescence images were acquired using the ChemiDocMP (BioRad).
Malin-overexpression cells are more sensitive to the AMPK-activator metformin. Since aberrant ES-glycogen binds to AMPK with high affinity and is inhibitory over p-AMPK activity, malin-OE cells that normalize glycogen architecture should be more sensitive to AMPK activators. Both A673-EV and A673-malin-OE cells were treated with 2 mM metformin and both p-AMPK and p-ACC were assessed.

[15] abbreviates: 2 mM metformin, A673-EV and A673-malin-OE cells.

“Also recorded” adds a separate entry of the source. Where two headings read alike, the source gives them in different places.

Usually IC50 stands for the concentration that gives 50% inhibition. As for `OC[C@H]1NC[C@@H](O)[C@@H]1O` [DAB, 1,4-dideoxy-1,4-imino-D-Arabinitol], the IC50 in data set [1] was approximately 1.5 µM. The “tumor size / xenograft growth” value in data set [2] is listed as “failed to continue to proliferate over the course of 15 weeks; also recorded: significantly decreased tumor size as compared to PBS”.
As to `COc1ccccc1O` [guaiacol, 2-methoxyphenol], in data set [3], the “sensitivity to metformin induced AMPK activation (p-ACC)” value is on record as “more sensitive to metformin induced AMPK activation, showing more prominent increase in p-ACC”. Moreover, the “reduction in tumor volume at the experiment endpoint” value in [4] came out at 4 fold. Besides, in data set [5], the “reduction in total glycogen” value is on record as 3 fold. In data set [6], the bioavailability entry is “high bioavailability”. The toxicity in vivo result in [7] was “minimal toxicity in vivo”. In addition, the IC50 in [8] (A673, 48 hrs, read-out: IC50 (50% cell viability)) was approximately 20 µM; in data set [8] (A673 cells, FIG. 31B, read-out: IC50) it was approximately 20 µM; in [9], approximately 20 µM; in [11], approximately 20 µM. For the same compound, in data set [10], the “tolerability / adverse side effects” value is reported as “well tolerated in athymic nude mice without any adverse side effects”. The “reduction in normalized glycogen levels” value in [12] is on record as 3 fold.
Consider `CCC(=C/[C@H](C)C/C=C/C(C)=C/[C@@H](C)C(=O)[C@@H](C)[C@H](O)[C@@H](C)C/C(C)=C/C(=O)O)/C=C/[C@@H]1OC(=O)C=C[C@@H]1C` [leptomycin], for which, in [13], the “localization of endogenous GP” value is reported as “accumulation of endogenous GP in the nucleus”.
Consider `CN(C)C(=N)N=C(N)N` [metformin], for which, in [14] (setting [15]), the p-ACC result is “only the malin-OE cell line showed a significant increase in p-ACC”; the p-AMPK result is “increased p-AMPK in both EV and malin-OE cell lines”. Further, the “AMPK activity (p-ACC read out) response to AMPK activator” value in [14] (ES-cells, FIG. 20) is recorded as “insensitive”.
